Laboratory results published in ChEMBL document CHEMBL5465560, “Selectivity Literature for EUbOPEN Chemogenomic Library” (2024).

Assays:
[1] = target: BMP-2-inducible protein kinase (Homo sapiens) (UniProt Q9NSY1); test: Selectivity interaction (Kinase panel (DSF assay)) EUB0001558a BMP2K
[2] = target: Serine/threonine-protein kinase N2 (Homo sapiens, UniProt Q16513); test: Selectivity interaction (ProQinase) EUB0000171b PKN2
[3] = target: Fibroblast growth factor receptor 2 (Homo sapiens) (UniProt P21802); test: Selectivity interaction (Kinase panel (Z-LYTE Assay)) EUB0001632a FGFR2; conditions: at 10 µM
Chain of Fibroblast growth factor receptor 2 (Homo sapiens) (P21802 22-821 limits assumed): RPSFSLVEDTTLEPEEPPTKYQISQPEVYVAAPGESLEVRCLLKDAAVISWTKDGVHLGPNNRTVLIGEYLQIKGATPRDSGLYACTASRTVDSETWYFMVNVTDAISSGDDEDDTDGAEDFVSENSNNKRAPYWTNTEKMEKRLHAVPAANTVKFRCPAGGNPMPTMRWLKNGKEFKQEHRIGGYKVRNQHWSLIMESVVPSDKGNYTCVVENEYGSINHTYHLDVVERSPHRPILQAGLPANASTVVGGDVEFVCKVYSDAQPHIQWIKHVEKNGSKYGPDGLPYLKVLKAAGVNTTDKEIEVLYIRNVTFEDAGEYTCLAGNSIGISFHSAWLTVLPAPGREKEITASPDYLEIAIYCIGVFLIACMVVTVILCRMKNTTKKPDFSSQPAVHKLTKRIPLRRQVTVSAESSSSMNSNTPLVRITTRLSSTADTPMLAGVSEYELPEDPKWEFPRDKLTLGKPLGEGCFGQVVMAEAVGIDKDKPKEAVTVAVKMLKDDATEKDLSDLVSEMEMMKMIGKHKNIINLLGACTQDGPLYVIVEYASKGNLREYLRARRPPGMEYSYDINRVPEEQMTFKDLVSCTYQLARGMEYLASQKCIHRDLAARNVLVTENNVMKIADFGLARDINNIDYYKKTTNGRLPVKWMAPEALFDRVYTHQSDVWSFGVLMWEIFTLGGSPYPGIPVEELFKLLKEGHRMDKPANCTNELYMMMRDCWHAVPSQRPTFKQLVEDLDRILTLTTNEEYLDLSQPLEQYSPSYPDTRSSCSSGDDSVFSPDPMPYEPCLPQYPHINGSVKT

[4] = target: Serine/threonine-protein kinase SMG1 (Homo sapiens) (UniProt Q96Q15); test: Selectivity interaction (ActivX KiNativ screen (kinase selectivity in THP-1 cell lysates)) EUB0000639a SMG1; type: subcellular; conditions: lysate, at 0.2 µM
[5] = target: Casein kinase II subunit alpha (Homo sapiens, UniProt P68400); test: Selectivity interaction (Kinase panel (Invitrogen)) EUB0000639a CSNK2A1; conditions: at 200 nM
Chain of Casein kinase II subunit alpha (P68400 whole entry, looked up): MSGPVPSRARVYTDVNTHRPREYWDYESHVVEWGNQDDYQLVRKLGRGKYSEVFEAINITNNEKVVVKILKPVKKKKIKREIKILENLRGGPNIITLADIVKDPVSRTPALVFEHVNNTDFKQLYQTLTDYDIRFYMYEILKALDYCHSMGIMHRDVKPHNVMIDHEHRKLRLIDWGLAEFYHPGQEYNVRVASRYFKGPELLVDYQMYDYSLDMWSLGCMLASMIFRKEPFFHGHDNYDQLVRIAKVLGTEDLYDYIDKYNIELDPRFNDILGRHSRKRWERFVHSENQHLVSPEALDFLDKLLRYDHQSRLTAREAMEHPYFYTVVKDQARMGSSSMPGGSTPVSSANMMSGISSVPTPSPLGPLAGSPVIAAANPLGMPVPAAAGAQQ

[6] = target: T1, Serine/threonine-protein kinase Sgk3 (Homo sapiens) (UniProt Q96BR1); test: Selectivity interaction (ActivX KiNativ screen (kinase selectivity in THP-1 cell lysates)) EUB0000639a SGK3; type: subcellular; conditions: lysate
T1 sequence (whole entry): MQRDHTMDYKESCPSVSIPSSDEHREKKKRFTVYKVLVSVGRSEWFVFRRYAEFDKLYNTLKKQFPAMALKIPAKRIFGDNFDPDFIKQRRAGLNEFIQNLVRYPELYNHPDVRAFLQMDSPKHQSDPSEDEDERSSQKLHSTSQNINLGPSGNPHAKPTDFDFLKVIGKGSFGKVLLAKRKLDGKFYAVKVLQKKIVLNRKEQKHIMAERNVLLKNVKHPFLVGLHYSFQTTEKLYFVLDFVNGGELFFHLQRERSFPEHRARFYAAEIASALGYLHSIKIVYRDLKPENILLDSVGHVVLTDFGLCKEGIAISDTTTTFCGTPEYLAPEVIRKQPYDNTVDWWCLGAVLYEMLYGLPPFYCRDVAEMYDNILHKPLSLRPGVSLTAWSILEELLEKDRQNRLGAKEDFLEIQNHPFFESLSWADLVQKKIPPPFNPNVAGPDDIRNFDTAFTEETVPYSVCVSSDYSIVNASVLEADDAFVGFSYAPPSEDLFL

[7] = target: T2, Rhodopsin kinase GRK7 (Homo sapiens) (UniProt Q8WTQ7); test: Selectivity interaction (SelectScreen profiling (Invitrogen)) EUB0000607a GRK7; conditions: at 2 µM
T2 sequence (whole entry): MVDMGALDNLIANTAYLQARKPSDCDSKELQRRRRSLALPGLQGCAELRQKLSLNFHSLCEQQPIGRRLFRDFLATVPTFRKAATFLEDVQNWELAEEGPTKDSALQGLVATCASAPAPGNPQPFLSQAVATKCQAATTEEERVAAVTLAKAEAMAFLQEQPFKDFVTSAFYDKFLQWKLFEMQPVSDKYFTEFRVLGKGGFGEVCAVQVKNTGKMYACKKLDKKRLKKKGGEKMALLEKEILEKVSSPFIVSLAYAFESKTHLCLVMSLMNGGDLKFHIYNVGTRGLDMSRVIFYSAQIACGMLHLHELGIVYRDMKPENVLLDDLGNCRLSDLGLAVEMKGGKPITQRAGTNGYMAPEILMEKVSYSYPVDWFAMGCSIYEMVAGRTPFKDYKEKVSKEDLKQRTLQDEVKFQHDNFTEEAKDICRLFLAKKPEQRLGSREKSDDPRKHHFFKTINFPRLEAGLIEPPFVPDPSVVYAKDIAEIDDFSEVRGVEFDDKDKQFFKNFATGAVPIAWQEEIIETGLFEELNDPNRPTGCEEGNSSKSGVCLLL

[8] = target: Phosphatidylinositol 4-phosphate 5-kinase type-1 alpha (Homo sapiens) (UniProt Q99755); test: Selectivity interaction (Ambit KINOMEscan and KiNATiv profiling in Jurkat cells) EUB0000090b PIP5K1A; type: cell-based; conditions: at 1 µM
Chain of Phosphatidylinositol 4-phosphate 5-kinase type-1 alpha (Homo sapiens) (Q99755 whole entry): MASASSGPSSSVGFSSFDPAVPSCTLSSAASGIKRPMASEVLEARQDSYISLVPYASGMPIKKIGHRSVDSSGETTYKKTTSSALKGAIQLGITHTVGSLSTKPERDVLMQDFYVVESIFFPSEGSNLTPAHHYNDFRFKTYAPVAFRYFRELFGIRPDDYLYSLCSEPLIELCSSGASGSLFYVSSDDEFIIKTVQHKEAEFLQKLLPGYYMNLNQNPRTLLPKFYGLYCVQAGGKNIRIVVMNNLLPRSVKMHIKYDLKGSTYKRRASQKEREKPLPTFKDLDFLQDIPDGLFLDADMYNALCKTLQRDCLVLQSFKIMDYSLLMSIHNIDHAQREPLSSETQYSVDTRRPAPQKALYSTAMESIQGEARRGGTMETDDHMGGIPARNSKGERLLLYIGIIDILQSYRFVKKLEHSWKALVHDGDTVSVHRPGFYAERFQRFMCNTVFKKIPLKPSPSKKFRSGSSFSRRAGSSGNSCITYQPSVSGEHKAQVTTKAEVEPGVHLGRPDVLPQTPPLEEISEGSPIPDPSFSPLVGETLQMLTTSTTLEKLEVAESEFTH

[9] = target: T3, Mitogen-activated protein kinase kinase kinase 12 (Homo sapiens) (UniProt Q12852); test: Selectivity interaction (KinomeScan (DiscoverX)) EUB0001619a MAP3K12; conditions: at 1 µM
T3 sequence (whole entry): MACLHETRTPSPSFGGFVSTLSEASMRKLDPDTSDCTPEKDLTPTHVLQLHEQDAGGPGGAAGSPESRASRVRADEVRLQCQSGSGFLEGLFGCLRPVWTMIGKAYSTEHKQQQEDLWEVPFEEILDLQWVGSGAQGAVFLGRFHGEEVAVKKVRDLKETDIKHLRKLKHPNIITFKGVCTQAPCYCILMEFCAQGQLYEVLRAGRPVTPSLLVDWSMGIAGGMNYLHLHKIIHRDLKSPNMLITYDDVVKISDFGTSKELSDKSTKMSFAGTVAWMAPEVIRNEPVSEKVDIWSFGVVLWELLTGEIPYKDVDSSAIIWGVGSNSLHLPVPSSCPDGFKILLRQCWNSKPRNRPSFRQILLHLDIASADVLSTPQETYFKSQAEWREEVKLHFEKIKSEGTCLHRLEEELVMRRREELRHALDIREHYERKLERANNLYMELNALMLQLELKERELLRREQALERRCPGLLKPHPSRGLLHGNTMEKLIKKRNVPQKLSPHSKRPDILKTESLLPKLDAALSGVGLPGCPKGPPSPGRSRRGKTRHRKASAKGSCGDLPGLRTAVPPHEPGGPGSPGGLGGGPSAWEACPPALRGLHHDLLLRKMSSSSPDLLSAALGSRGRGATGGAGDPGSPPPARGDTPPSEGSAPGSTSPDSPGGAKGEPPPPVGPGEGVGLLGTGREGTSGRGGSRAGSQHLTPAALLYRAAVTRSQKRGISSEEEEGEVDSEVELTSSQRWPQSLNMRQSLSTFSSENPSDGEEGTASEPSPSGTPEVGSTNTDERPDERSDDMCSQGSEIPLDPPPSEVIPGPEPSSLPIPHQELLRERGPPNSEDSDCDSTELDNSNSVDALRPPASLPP

Chain of Serine/threonine-protein kinase N2 (Q16513 whole entry, looked up): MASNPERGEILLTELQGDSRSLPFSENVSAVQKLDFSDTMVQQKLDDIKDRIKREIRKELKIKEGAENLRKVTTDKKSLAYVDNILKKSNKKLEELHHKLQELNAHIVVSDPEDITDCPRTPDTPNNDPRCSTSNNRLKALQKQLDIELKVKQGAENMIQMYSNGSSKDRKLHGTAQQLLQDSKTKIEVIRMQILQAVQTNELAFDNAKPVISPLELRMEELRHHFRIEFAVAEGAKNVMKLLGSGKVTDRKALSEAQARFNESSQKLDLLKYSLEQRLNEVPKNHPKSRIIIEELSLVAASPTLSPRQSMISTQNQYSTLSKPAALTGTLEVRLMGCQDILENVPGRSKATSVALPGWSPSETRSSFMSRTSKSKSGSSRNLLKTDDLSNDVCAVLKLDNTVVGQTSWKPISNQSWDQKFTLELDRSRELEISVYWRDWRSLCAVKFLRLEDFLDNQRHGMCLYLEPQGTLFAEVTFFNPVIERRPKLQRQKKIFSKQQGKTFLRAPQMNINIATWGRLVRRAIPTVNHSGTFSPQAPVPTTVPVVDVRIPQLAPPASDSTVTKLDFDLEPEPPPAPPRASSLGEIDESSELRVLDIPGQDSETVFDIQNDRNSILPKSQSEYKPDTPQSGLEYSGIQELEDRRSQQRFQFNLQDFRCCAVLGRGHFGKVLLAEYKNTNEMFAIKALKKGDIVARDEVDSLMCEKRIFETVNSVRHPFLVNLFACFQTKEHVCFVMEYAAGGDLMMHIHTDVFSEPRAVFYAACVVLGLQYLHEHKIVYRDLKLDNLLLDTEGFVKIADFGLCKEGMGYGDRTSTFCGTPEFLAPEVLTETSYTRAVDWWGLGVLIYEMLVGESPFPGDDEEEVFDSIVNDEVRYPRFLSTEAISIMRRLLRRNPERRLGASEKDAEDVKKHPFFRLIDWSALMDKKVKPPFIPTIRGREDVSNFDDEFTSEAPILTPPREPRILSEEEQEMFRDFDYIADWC
Chain of BMP-2-inducible protein kinase (Homo sapiens) (Q9NSY1 whole entry, looked up): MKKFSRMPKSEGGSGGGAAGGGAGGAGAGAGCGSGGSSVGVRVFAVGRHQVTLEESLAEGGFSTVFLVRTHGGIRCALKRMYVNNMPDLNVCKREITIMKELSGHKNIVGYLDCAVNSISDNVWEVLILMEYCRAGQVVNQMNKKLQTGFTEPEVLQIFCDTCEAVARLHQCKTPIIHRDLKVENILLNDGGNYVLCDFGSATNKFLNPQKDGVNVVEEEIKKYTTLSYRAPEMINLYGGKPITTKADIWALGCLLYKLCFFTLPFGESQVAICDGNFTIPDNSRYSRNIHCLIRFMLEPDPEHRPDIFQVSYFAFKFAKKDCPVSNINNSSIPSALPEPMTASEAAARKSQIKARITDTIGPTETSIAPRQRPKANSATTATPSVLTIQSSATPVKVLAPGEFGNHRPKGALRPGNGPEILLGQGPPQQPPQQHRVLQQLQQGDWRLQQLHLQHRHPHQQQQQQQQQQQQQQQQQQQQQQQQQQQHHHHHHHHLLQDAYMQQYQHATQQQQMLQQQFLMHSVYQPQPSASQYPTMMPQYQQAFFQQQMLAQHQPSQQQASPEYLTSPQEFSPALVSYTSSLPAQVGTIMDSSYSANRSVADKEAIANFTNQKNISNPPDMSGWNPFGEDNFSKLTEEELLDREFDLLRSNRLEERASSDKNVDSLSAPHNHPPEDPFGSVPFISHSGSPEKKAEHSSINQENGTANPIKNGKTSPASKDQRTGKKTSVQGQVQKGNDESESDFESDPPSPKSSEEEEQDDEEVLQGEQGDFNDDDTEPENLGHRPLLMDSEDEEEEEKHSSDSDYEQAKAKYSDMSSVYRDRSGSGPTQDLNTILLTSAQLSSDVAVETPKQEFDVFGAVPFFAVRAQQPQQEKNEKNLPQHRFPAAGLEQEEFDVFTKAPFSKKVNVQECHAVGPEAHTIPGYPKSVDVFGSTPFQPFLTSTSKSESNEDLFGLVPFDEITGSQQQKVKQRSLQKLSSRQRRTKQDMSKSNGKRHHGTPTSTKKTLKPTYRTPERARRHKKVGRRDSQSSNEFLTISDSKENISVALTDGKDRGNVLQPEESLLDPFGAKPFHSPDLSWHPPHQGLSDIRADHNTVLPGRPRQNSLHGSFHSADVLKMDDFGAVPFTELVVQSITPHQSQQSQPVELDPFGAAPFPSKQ

Work on `CC(C)(O)[C@H](F)CN1Cc2cc(NC(=O)c3cnn4cccnc34)c(N3CCOCC3)cc2C1=O` yielded a dTM [1] of 8.7 K.
Work on `C=CC(=O)Nc1cccc(C(=O)Nc2ccc(Nc3cc(-c4[nH]c(SC)nc4C)ccn3)cc2)c1` yielded a % of control ([2]; at 1 µM) of 90% and a % of control ([2]; at 5 µM) of 76%.
For `Cn1cc(-n2cnc3c(NCc4nc5cc(Cl)c(Cl)cc5[nH]4)nc(N4CCOCC4)nc32)cn1`, the % of control [3] was 17.8%.
`CC[C@@H]1[C@H](F)C(=O)N[C@@H]1COc1nccc2cc(C(N)=O)c(OC)cc12` [ZIMLOVISERTIB] showed a % of inhibition [4] of 0%, a % of inhibition [5] of -1.15% and a % of inhibition ([6]; at 0.01 µM) of 51.3%. For the same compound, the % of inhibition ([6]; at 0.04 µM) was 6.7%, the % of inhibition ([6]; at 0.2 µM) was 7.4% and the % of inhibition ([6]; at 1 µM) was 18.9%. It also gave a % of inhibition ([6]; at 5 µM) of 25.3%.
Work on `CNC(=O)Nc1ccc(-c2nc(N3CC4CCC(C3)O4)c3cnn(C4CCC5(CC4)OCCO5)c3n2)cc1` yielded a % of inhibition [7] of 7%.
With `CN(C)C/C=C/C(=O)Nc1ccc(C(=O)N2CCCC(Nc3ncc(Cl)c(-c4c[nH]c5ccccc45)n3)C2)cc1` (centres undefined) the % of control [8] was 78%.
With `N#Cc1cccc(-c2c[nH]c3ncnc(N4CCOCC4)c23)c1` the % of control [9] was 96%.
